Experimental data taken from patent publication US20120094958A1, “QUINOLINES AS INHIBITORS OF FARNESYL PYROPHOSPHATE SYNTHASE” (NOVARTIS AG, priority 2008, published 2012).
Structures can show the parent of a compound that is named as a salt.

Assays:
[1] = molecular target: T1, FPPS (Farnesyl pyrophosphate synthase) (Homo sapiens, UniProt P14324); assay: FPPS Assay: LC-MS Method; assay type: biochemical; details: GPP/IPP 5 μM each, reaction stopped after 10 minutes
T1 sequence (P14324 1-353 isoform P14324-2): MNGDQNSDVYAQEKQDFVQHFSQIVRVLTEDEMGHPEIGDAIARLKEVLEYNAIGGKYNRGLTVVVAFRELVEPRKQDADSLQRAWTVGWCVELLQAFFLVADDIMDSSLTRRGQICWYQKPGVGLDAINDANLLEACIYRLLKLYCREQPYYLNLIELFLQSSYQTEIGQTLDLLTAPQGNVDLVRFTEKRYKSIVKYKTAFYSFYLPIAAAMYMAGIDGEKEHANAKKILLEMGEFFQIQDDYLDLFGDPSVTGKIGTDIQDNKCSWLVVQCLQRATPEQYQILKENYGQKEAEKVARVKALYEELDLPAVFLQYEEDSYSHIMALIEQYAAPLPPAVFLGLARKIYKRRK
Protocol: Recombinant human Farnesyl Pyrophosphate synthase (FPPS) was cloned, expressed and purified as previously described {J.-M. Rondeau et al., ChemMedChem 2006, 1, 267-271.} and stored as a 10 mg/mL stock solution in 25 mM Tris pH 7.4, 25 mM NaCl, 2 mM DTT (dithiothreitol). Geranyl pyrophosphate (GPP) was purchased from Anawa AG (Switzerland) and stored as a 1 mg/mL solution in 4 parts isopropanol:3 parts ammonia:1 part water. 1-[^3H]Isopentenyl pyrophosphate (IPP), 50 Ci/mmol; 1 Ci/mL, was purchased from Anawa AG and stored in ethanol:ammonia hydroxide 1:1 at −80 C. 1-[^3H] Farnesyl pyrophosphate triammonium salt, 100 Ci/mmol; 1 mCi/mL in 70% ethanol, 0.25 M ammonium bicarbonate was purchased from Anawa AG. Phospholipid-coated 384-well image FlashPlates™ were purchased from PerkinElmer. the assay buffer consisted of 20 mM HEPES pH7.4, 5 mM MgCl2 and 1 mM CaCl2.
Selected compounds are assayed in another FPPS based assay:
Into each well of a 384-well plate, 5 μL of compound in 20% DMSO/water is placed. 25 μL of GPP/IPP (5 μM each in assay buffer) is then added. The reaction is started with the addition of 10 μL of FPPS (diluted 1 to 10000 with assay buffer). After 10 minutes, the reaction is stopped by addition of 10 μL of 2 μM FSPP in 2% DMIPA/IPA. The reaction mixture is then extracted with 50 μL of n-pentanol using vortex mixing. After phase separation, 25 μL of the upper (n-pentanol) layer is transferred to a new 384-well plate and the pentanol is evaporated using a vacuum centrifuge. The dried residue is reconstituted in 50 μL of 0.1% DMIPA/water for analysis by the LC/MS/MS method.
LC/MS/MS analyses are performed on a Micromass Quattro Micro interfaced to an Agilent 1100 binary LC pump. Injection is performed by a Gilson 215/889 autosampler using an injection loop size of 2.5 μL. Chromatography is performed on a Waters 2.1×20 mm Xterra MS C18 5 μm guard column (P/N186000652) contained in a guard column holder (P/N 186000262) using 0.1% DMIPA/methanol as solvent A and 0.1% DMIPA/water as solvent B. The gradient is 5% A from 0.00 to 0.30 min, 50% A at 0.31 min, 80% A at 1.00 min, and 5% A from 1.01 to 2.00 min. The flow rate is 0.3 mL/min and the flow is diverted to waste from 0.00 to 0.50 min and again from 1.20 to 2.00 min.
The MRM transitions monitored are 381^−>79^− for FPP and 397^−>159^− for FSPP at a collision energy of 22 eV and a collision cell pressure of 2.1×10^−3 mbar of Ar. The dwell time per transition is 400 msec with a span of 0.4 Da. The interchannel delay and interscan delay are both 0.02 sec. Other mass spectrometric operating parameters are: capillary, 2.0 kV; cone, 35 V; extractor, 2.0 V, source temp., 100° C.; desolvation gas temp., 250° C.; desolvation gas flow, 650 L/hr; cone gas flow, 25 L/hr; multiplier, 650 V.
The total cycle time per sample is 2.5 minutes. Since the analysis is formatted for 384-well plates, a plate is analyzed in 16 hours. The chromatograms are processed using Quanlynx software, which divides the area of individual FPP peaks by the area of the FSPP peaks (internal standard). The resulting values are reported as the relative response for the corresponding sample well.

CCOC(=O)Nc1cc(-c2cccc3ccccc23)c2nc(C(=O)O)ccc2c1 [Example 29, 6-Ethoxycarbonylamino-8-naphthalen-1-yl-quinoline-2-carboxylic acid]
melting point: 205 to 208 °C | IC50 [1]: 37 nM

CCOc1c(N)cc(-c2cccc3ccccc23)c2nc(C(=O)O)ccc12 [Example 30, 6-Amino-5-ethoxy-8-naphthalen-1-yl-quinoline-2-carboxylic acid]
melting point: 182 to 184 °C | IC50 [1]: 24 nM

CS(=O)(=O)N(c1cc(-c2cccc3ccccc23)c2nc(/C=C/P(=O)(O)O)ccc2c1)S(C)(=O)=O [Example 47, {(E)-2-[6-(di-methanesulfonyl)amino-8-naphthalen-1-yl-quinolin-2-yl]-vinyl}-phosphonic acid]
IC50 [1]: 204 nM

O=[N+]([O-])c1cc(-c2cccc3ccccc23)c2nc(/C=C/P(=O)(O)O)ccc2c1 [Example 43, [(E)-2-(6-Nitro-8-naphthalen-1-yl-quinolin-2-yl)-vinyl]-phosphonic acid]
IC50 [1]: 103 nM

CS(=O)(=O)Nc1cc(-c2cccc3ccccc23)c2nc(/C=C/P(=O)(O)O)ccc2c1 [Example 46, [(E)-2-(6-Methanesulfonylamino-8-naphthalen-1-yl-quinolin-2-yl)-vinyl]-phosphonic acid]
IC50 [1]: 91 nM

CC(=O)Nc1cc(-c2cccc3ccccc23)c2nc(-c3nn[nH]n3)ccc2c1 [Example 51, N-[8-Naphthalen-1-yl-2-(2H-tetrazol-5-yl)-quinolin-6-yl]-acetamide]
IC50 [1]: 48 nM

O=C(O)c1ccc2cc(-c3cccs3)cc(-c3cccc4ccccc34)c2n1 [Example 35, 8-Naphthalen-1-yl-6-thiophen-2-yl-quinoline-2-carboxylic acid lithium salt]
IC50 [1]: 311 nM

Nc1cccc2c(-c3cccc4ccc(C(=O)O)nc34)cccc12 [Example 39, 8-(5-Amino-naphthalen-1-yl)-quinoline-2-carboxylic acid]
IC50 [1]: 267 nM

Cc1cccc2c(-c3cccc4ccc(C(=O)O)nc34)cccc12 [Example 38, 8-(5-Methyl-naphthalen-1-yl)-quinoline-2-carboxylic acid]
IC50 [1]: 217 nM

Nc1cc(-c2cccc3ccccc23)c2nc(C(=O)O)ccc2c1 [Example 31, 6-Amino-8-naphthalen-1-yl-quinoline-2-carboxylic acid]
IC50 [1]: 69 nM

O=P(O)(O)c1ccc2cc(-c3ccc4c(c3)OCO4)cc(-c3cccc4ccccc34)c2n1 [Example 27f.ii]
IC50 [1]: 977 nM

O=C(Nc1cc(-c2cccc3ccccc23)c2nc(/C=C/P(=O)(O)O)ccc2c1)c1cccnc1 [Example 48, ((E)-2-{8-Naphthalen-1-yl-6-[(pyridine-3-carbonyl)-amino]-quinolin-2-yl}-vinyl)phosphonic acid]
IC50 [1]: 12 nM

O=C(O)c1ccc2cc(I)cc(-c3cccc4ccccc34)c2n1 [Example 32, 6-Iodo-8-naphthalen-1-yl-quinoline-2-carboxylic acid lithium salt]
IC50 [1]: 160 nM

O=P(O)(O)c1ccc2cc(-c3ccsc3)cc(-c3cccc4ccccc34)c2n1 [Example 27c.ii]
IC50 [1]: 205 nM

O=P(O)(O)c1ccc2cc(I)cc(-c3cccc4ccccc34)c2n1 [Example 21, (6-Iodo-8-naphthalen-1-yl-quinolin-2-yl)-phosphonic acid]
IC50 [1]: 507 nM

CCOc1c(I)cc(-c2cccc3ccccc23)c2nc(C(=O)O)ccc12 [Example 33, 5-Ethoxy-6-iodo-8-naphthalen-1-yl-quinoline-2-carboxylic acid lithium salt]
IC50 [1]: 56 nM

O=C(O)c1ccc2cc(-c3ccsc3)cc(-c3cccc4ccccc34)c2n1 [Example 34, 8-Naphthalen-1-yl-6-thiophen-3-yl-quinoline-2-carboxylic acid]
melting point: 164 to 166 °C | IC50 [1]: 100 nM

O=P(O)(O)c1ccc2cc(-c3ccco3)cc(-c3cccc4ccccc34)c2n1 [Example 27d.ii]
IC50 [1]: 900 nM

O=P(O)(O)c1ccc2cc(-c3cccc(O)c3)cc(-c3cccc4ccccc34)c2n1 [Example 28, [6-(3-Hydroxy-phenyl)-8-naphthalen-1-yl-quinolin-2-yl]-phosphonic acid]
IC50 [1]: 606 nM

CCOC(=O)Nc1cc(-c2cccc3ccccc23)c2nc(-c3nn[nH]n3)ccc2c1 [Example 50, N-[8-Naphthalen-1-yl-2-(2H-tetrazol-5-yl)-quinolin-6-yl]-carbamic acid ethyl ester]
IC50 [1]: 19 nM

O=P(O)(O)c1ccc2cc(-c3cccs3)cc(-c3cccc4ccccc34)c2n1 [Example 17, (8-Naphthalen-1-yl-6-thiophen-2-yl-quinolin-2-yl)-phosphonic acid]
IC50 [1]: 266 nM

COC(=O)Nc1cc(-c2cccc3ccccc23)c2nc(/C=C/P(=O)(O)O)ccc2c1 [Example 44, [(E)-2-(6-Methoxycarbonylamino-8-naphthalen-1-yl-quinolin-2-yl)-vinyl]-phosphonic acid]
IC50 [1]: 14 nM

CC(=O)Nc1cc(-c2cccc3ccccc23)c2nc(/C=C/P(=O)(O)O)ccc2c1 [Example 45, [(E)-2-(6-Acetylamino-8-naphthalen-1-yl-quinolin-2-yl)-vinyl]-phosphonic acid]
IC50 [1]: 26 nM

Nc1cc(-c2cccc3ccccc23)c2nc(/C=C/P(=O)(O)O)ccc2c1 [Example 42, [(E)-2-(6-Amino-8-naphthalen-1-yl-quinolin-2-yl)-vinyl]-phosphonic acid]
IC50 [1]: 9 nM
